# Laboratory results: publication PMC11776485 (Virulence, 2025)
# Target: T1, MoOxdC (Pyricularia oryzae, UniProt G4NLF1)
# T1 construct: gene MGG_14061
# Conditions: 50 mM citrate pH 4.0, 37 °C, 30 min; 0.2 mL of 8 mM oxalic acid in 1.5 mL; no added metal
# T1 sequence (G4NLF1 1-500 limits assumed): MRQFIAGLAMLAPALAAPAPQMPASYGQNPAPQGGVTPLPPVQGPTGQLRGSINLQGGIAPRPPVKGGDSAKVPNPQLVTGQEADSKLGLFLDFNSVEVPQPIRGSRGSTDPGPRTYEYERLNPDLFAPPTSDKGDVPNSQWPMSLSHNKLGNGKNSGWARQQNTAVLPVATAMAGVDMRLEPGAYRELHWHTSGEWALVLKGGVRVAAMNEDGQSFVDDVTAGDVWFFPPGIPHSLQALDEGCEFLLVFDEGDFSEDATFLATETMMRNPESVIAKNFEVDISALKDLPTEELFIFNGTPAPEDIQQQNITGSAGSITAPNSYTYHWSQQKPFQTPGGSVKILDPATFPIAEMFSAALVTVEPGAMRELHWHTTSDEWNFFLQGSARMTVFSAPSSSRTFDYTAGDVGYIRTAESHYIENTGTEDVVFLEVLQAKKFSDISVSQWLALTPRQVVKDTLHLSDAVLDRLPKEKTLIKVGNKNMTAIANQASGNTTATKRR
structure (smiles),measurement,value
O=C(O)C(=O)O [oxalic acid],residual oxalic acid by Fe(III)-sulfosalicylate absorbance at 510 nm; formic aci,The oxalate decarboxylase activity of the purified recombinant MoOxdC protein was analyzed.
